Data reported in patent publication US20250186442A1, “Obicetrapib and Ezetimibe Combination Treatment and Fixed Dose Pharmaceutical Compositions” (NewAmsterdam Pharma B.V., priority 2022, published 2025).

How the values were obtained:
[1] = tested on: LDL-C; experiment: ROSE2 phase 2b clinical trial - LDL-C; format: in vivo, human; conditions: ROSE2; ezetimibe added on top of obicetrapib
Procedure: The primary objective of this study is to evaluate the effect of obicetrapib 10 mg+ezetimibe 10 mg combination therapy compared with placebo, when used as an adjunct to high-intensity statin therapy, on LDL-C at Day 84.
The secondary objectives of this study include the following, in hierarchical order: • To evaluate the effect of obicetrapib 10 mg monotherapy compared with placebo, when used as an adjunct to high-intensity statin therapy, on LDL-C at Day 84; • To evaluate the effect of obicetrapib 10 mg+ezetimibe 10 mg combination therapy compared with placebo, when used as an adjunct to high-intensity statin therapy, on ApoB at Day 84; and • To evaluate the effect of obicetrapib 10 mg monotherapy compared with placebo, when used as an adjunct to high-intensity statin therapy, on ApoB at Day 84.
This study will be a placebo-controlled, double-blind, randomized, Phase 2 study to evaluate the efficacy, safety, and tolerability of obicetrapib 10 mg, both in combination with ezetimibe 10 mg and as monotherapy, as an adjunct to high-intensity statin therapy. This study will take place at approximately 20 sites in the United States.
Up to 2 weeks after the Screening Visit, participants will return to the site on Day 1 (Visit 2) and confirm study eligibility before being randomized and beginning treatment. Approximately 114 eligible participants (38 participants per treatment group) will be randomized in a 1:1:1 ratio to 1 of the following treatment groups: • Combination therapy: Obicetrapib 10 mg+ezetimibe 10 mg (administered as one 10 mg obicetrapib tablet and one 10 mg ezetimibe capsule); • Obicetrapib monotherapy: Obicetrapib 10 mg (administered as one 10 mg obicetrapib tablet and 1 placebo capsule); or • Placebo (administered as 1 placebo tablet and 1 placebo capsule).
During the 12-week Treatment Period, the assigned study drugs will be administered by the participants orally with water, once daily on Day 1 to Day 84 at approximately the same time each morning. Participants will return to the site on Day 28 (+2 days), Day 84 (+2 days), and Day 112 (+2 days) for efficacy, safety, and pharmacokinetic (PK) assessments. Participants, Investigators, the Clinical Research Organization (CRO), and the Sponsor will be blinded to all lipid results from Day 1 (Visit 2) for the first participant until all enrolled participants complete the Day 84 (End of Treatment) visit or are withdrawn from the study, in order to protect blinding to treatment assignment.
The primary efficacy endpoint is the percent change from Day 1 to Day 84 in LDL-C for the obicetrapib 10 mg+ezetimibe 10 mg combination treatment group compared with the placebo group.
The secondary efficacy endpoints include the following, in hierarchical order: • Percent change from Day 1 to Day 84 in LDL-C for the obicetrapib 10 mg monotherapy • treatment group compared with the placebo group; • Percent change from Day 1 to Day 84 in ApoB for the obicetrapib 10 mg+ezetimibe 10 mg • combination treatment group compared with the placebo group; and • Percent change from Day 1 to Day 84 in ApoB for the obicetrapib 10 mg monotherapy treatment group compared with the placebo group.
The exploratory efficacy endpoints include the following: • Percent change from Day 1 to Day 84 in non-HDL-C, VLDL-C, HDL-C, TG, ApoE, Lp(a), and HDL-ApoE for the obicetrapib 10 mg+ezetimibe 10 mg combination treatment group compared with the placebo group and for the obicetrapib 10 mg monotherapy treatment group compared with the placebo group; and • Proportion of participants at Day 84 that achieve LDL-C<2.6 mmol/L (<100 mg/dL), LDL-C<1.8 mmol/L (<70 mg/dL), and LDL-C<1.3 mmol/L (<50 mg/dL) for the obicetrapib 10 mg+ezetimibe 10 mg combination treatment group compared with the placebo group and for the obicetrapib 10 mg monotherapy treatment group compared with the placebo group. […]

[2] = tested on: LDL-C; conditions: cited from earlier work
[3] = in water; cited from earlier work
[4] = Kinetic solubility in FeSSIF (pH 5.0) at 37° C.; format: physicochemical; conditions: FeSSIF pH 5.0, 37° C., as obicetrapib free acid
Description: (§1) The amorphous form has a higher kinetic solubility and dissolution rate than the crystalline form (and by extension obicetrapib itself). Both crystalline and amorphous obicetrapib hemicalcium kinetic solubility determinations were made in biorelevant media at different pHs, namely at about 5.0 (FeSSIF conditions) and at pH of about 6.5 (FaSSIF) conditions as set forth in Example 11.28.
The concentrations in Table W are those of obicetrapib (i.e., the free acid).
(§2) The solids were magnetically stirred at 600 RPM in a shaker bath and samples were drawn with a 1.0 ml syringe at T=15 mins, 30 mins, 60 mins, 90 mins and 120 mins. The solubility was measured using HPLC method provided by the client. The compound was added to 4.0 ml glass vials at approximately 20.0 mg/ml. Samples were agitated with a vortex mixer for about 5 minutes to ensure the presence of undissolved excess powder. The sample collected at each time point was centrifuged at 1200 RPM, filtered with 0.45 μm Polytetrafluoroethylene (PTFE) filters and diluted with methanol before HPLC analysis. In order to minimize the effect of potential analyte adsorption on the filter, the initial 0.5 mL of supernatant passing through the filter was discarded prior to collecting sample for HPLC analysis.

[5] = Kinetic solubility in FaSSIF (pH 6.5) at 37° C.; format: physicochemical; conditions: FaSSIF pH 6.5, 37° C., as obicetrapib free acid
Description: as §1
The concentrations in Table X are those of obicetrapib (i.e., the free acid).
as §2

[6] = Stability study at 70° C./75% RH (XRPD physical stability, HPLC purity); format: physicochemical; conditions: 70° C. at 75% relative humidity
Description: FIG. 54 is a plot of x-ray powder diffraction pattern taken of crystalline obicetrapib hemicalcium, and FIG. 55 is a plot of x-ray powder diffraction patterns taken of crystalline obicetrapib hemicalcium under stress conditions. In FIG. 55, there are four diffraction patterns shown based on stability study set forth in Example 11.27. Pattern 1 is an x-ray powder diffraction pattern of a sample of amorphous obicetrapib hemicalcium. Pattern 2 is the x-ray powder diffraction pattern of a sample of crystalline obicetrapib hemicalcium. In pattern 3, the sample of crystalline obicetrapib hemicalcium was exposed to 70° C. at 75% relative humidity for one day. […] Pattern 1 was taken before the sample was placed on stability.
Stability study was conducted on crystalline and amorphous forms of obicetrapib at 70° C./75% relative humidity (RH). The solids were placed into a 4.0 ml glass vial without caps (open condition) and stored at 70° C./75% RH. Samples were pulled out of the stability chamber at day 1 (24 hours) and at 7-day time point. The solids were analyzed by XRPD for physical stability and by HPLC for chemical purity. The sample collected at each time point was dissolved in methanol before HPLC analysis. In order to minimize the effect of potential analyte adsorption on the filter, the initial 0.5 mL of supernatant passing through the filter was discarded prior to collecting sample for HPLC analysis. Purity for each sample was determined based on peak area percent and compared to the sample at T=0.

[7] = Moisture uptake at high relative humidity (hygroscopicity); format: physicochemical; conditions: relative humidities approaching 90%
Description: When exposed to relative humidities approaching 90%, moisture uptake has been measured to be typically less than about 5% for example. […] Other drawbacks commonly associated with manufacturing and using amorphous materials are similarly not present. For example, amorphous materials are often challenging to make chemically pure.

Structure (SMILES) | additional/incremental (median) reduction of LDL-C [1] | incremental reduction in LDL-C levels ([2]; ezetimibe in combination with statins (Catapano et al. 2016)) | LDL-C levels reduced ([2]; ezetimibe mono-therapy, hyperlipidemic patients (Catapano et al. 2016)) | mean reduction in LDL-C compared with placebo ([2]; ezetimibe monotherapy, hypercholesterolemia, meta-analysis of 8 randomized studies) | greater reduction in LDL-C compared with statin alone ([2]; statin and ezetimibe in combination, meta-analysis of 27 studies) | solubility [3] | Concentration in Solution ([4]; 15 mins) | Concentration in Solution ([4]; 30 mins) | Concentration in Solution ([4]; 60 mins) | Concentration in Solution ([4]; 90 mins) | Concentration in Solution ([4]; 120 mins) | Concentration in Solution ([5]; 15 mins) | Concentration in Solution ([5]; 30 mins) | Concentration in Solution ([5]; 60 mins) | Concentration in Solution ([5]; 90 mins) | Concentration in Solution ([5]; 120 mins) | physical stability by x-ray powder diffraction ([6]; 7 days) | physical stability by x-ray powder diffraction ([6]; one day) | physical stability by x-ray powder diffraction ([6]; 14 days) | moisture uptake [7]
O=C1[C@H](CC[C@H](O)c2ccc(F)cc2)[C@@H](c2ccc(O)cc2)N1c1ccc(F)cc1 [Ezetimibe, (3R,4S)-1-(4-fluorophenyl)-3-[(3S)-3-(4-fluorophenyl)-3-hydroxypropyl]-4-(4-hydroxyphenyl)azetidin-2-one] | about 32% | 15-20% | 15-22% | 18.58% | 15.1% | practically insoluble |  |  |  |  |  |  |  |  |  |  |  |  |  | 
CCOC(=O)N1c2ccc(C(F)(F)F)cc2[C@@H](N(Cc2cc(C(F)(F)F)cc(C(F)(F)F)c2)c2ncc(OCCCC(=O)[O-])cn2)C[C@H]1CC.CCOC(=O)N1c2ccc(C(F)(F)F)cc2[C@@H](N(Cc2cc(C(F)(F)F)cc(C(F)(F)F)c2)c2ncc(OCCCC(=O)[O-])cn2)C[C@H]1CC.[Ca+2] [Crystalline obicetrapib hemicalcium, reference compound] |  |  |  |  |  |  | 85 µg/mL | 169 µg/mL | 369 µg/mL | 453 µg/mL | 529 µg/mL | 30 µg/mL | 48 µg/mL | 84 µg/mL | 107 µg/mL | 144 µg/mL | the result remains the same | near total loss of crystallinity |  | 
CCOC(=O)N1c2ccc(C(F)(F)F)cc2[C@@H](N(Cc2cc(C(F)(F)F)cc(C(F)(F)F)c2)c2ncc(OCCCC(=O)O)cn2)C[C@H]1CC [amorphous obicetrapib hemicalcium] |  |  |  |  |  |  |  |  |  |  |  |  |  |  |  |  | remained amorphous |  | remained amorphous | less than 5%
